Laboratory results published in patent publication US20230105982A1, “INSULIN-INCRETIN CONJUGATES” (Merck Sharp & Dohme Corp., priority 2021, published 2023).

Tests used:
Assay type in all cases: cell-based
human GCGR = target: T1, human GCGR (Homo sapiens, UniProt P47871); experiment: cAMP activity assay, cells expressing human GCGR; settings: for GCGR/GLP1R ratio: ratio of hGCGR EC50 to hGLP1R EC50, Table 5
T1 construct: expressed in transfected cells
Experimental: (§1) Activity of the incretin peptides or the conjugates at the Glucagon receptor (GCGR) and GLP-1 receptor (GLP1R) may be measured in a cAMP activity assay as follows.
(§2) Peptides are dissolved in 100% DMSO and serially diluted to generate 10 point titrations. The peptide solutions are then transferred into 384-well assay plates (150 nL/well). Assay ready frozen cells expressing human GLP1R or human GCGR are suspended in growth media consisting of DMEM medium (GIBCO), 10% FBS (GIBCO), 1×NEAA(GIBCO), 1×P/S (GIBCO), 10 μg/mL Blasticidin (GIBCO) and 200 μg/mL Hygromycin (GIBCO). […] The cell suspensions (15 μL) are then added to the assay plates containing the peptide solutions (30,000 cells/well for human GCGR; 10,000 cells/well for human GLP1R). The cells are incubated for one hour at room temperature in the dark.
(§3) Production of cAMP may be determined using HitHunter™ cAMPXS kits (DiscoverX) following the manufacturer's protocol. The plates are incubated for overnight at room temperature in the dark. Luminescence may be measured using an EnVision Multilabel plate reader (Perkin Elmer). Native GLP-1 and Glucagon (Bachem) may be used as control peptides. EC50 values may be calculated using uses a 4 parameter logistic fit based on the Levenberg-Marquardt algorithm.

human GLP1R = human GLP1R (Homo sapiens, UniProt P43220); experiment: cAMP activity assay, cells expressing human GLP1R; settings: hGLP1R EC50
Experimental: as §1, §2, §3

minipig IR = experiment: Insulin Receptor Phosphorylation (pAkt) Assay, CHO cells overexpressing minipig IR; settings: Table 7, read-out: Insulin Receptor pAK Assay EC50 Minipig

T1 sequence (P47871 26-477): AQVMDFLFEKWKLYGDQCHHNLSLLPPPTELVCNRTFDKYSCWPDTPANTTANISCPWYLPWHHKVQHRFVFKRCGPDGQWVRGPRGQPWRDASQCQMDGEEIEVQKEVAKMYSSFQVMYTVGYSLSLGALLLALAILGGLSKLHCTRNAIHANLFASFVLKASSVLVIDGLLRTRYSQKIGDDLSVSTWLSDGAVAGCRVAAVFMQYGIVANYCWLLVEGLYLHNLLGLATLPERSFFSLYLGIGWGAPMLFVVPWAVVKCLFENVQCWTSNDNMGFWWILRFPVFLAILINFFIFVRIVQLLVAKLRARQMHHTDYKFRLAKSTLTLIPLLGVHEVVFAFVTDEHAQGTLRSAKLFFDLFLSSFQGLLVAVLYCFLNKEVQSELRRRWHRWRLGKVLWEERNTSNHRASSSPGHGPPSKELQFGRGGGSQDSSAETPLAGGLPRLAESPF
Sequence of human GLP1R (P43220 24-463): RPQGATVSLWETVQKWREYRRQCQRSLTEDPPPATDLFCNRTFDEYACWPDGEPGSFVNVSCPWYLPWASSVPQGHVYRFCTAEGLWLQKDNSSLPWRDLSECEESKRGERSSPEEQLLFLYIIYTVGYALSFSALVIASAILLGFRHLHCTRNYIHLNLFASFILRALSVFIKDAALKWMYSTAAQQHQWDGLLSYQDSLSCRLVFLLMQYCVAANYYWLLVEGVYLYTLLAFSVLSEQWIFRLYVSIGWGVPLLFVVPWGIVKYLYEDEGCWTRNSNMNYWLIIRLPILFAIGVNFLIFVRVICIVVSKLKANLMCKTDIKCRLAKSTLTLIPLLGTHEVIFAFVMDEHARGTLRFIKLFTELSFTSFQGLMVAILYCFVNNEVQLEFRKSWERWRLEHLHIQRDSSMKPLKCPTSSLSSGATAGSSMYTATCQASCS

| Compound | GCGR/GLP1R ratio (human GCGR) | EC50 (human GLP1R) | EC50 (human GCGR; hGCGR_EC50) | EC50 (minipig IR) |
| --- | --- | --- | --- | --- |
| CCCCCCCCCCCCCCCC(=O)N[C@@H](CCC(=O)N[C@@H](CCC(=O)NCCCC[C@H](NC(=O)[C@H](CC(=O)O)NC(=O)[C@H](CO)NC(=O)[C@@H](NC(=O)[C@H](Cc1ccccc1)NC(=O)[C@@H](NC(=O)CNC(=O)[C@H](CCC(N)=O)NC(=O)[C@@H](CO)NC(=O)[C@@H](N)Cc1c[nH]cn1)[C@@H](C)O)[C@@H](C)O)C(=O)N[C@@H](CO)C(=O)N[C@@H](CCCCN)C(=O)N[C@@H](Cc1ccc(O)cc1)C(=O)N[C@@H](CC(C)C)C(=O)N[C@@H](CC(=O)O)C(=O)NC(C)(C)C(=O)N[C@@H](CCCNC(=N)N)C(=O)N[C@@H](C)C(=O)N[C@@H](C)C(=O)N[C@@H](CCC(N)=O)C(=O)N[C@@H](CC(=O)O)C(=O)N[C@@H](Cc1ccccc1)C(=O)N[C@H](C(=O)N[C@@H](CCCCN=[N+]=[N-])C(=O)N[C@@H](Cc1c[nH]c2ccccc12)C(=O)N[C@@H](CC(C)C)C(=O)N[C@@H](CC(C)C)C(=O)N[C@@H](CC(=O)O)C(=O)N[C@H](C(N)=O)[C@@H](C)O)C(C)C)C(=O)O)C(=O)O [PEP7] | 0.2 |  |  |  |
| CCCCCCCCCCCCCCCC(=O)N[C@@H](CCC(=O)N[C@@H](CCC(=O)NCCCC[C@H](NC(=O)[C@H](CC(=O)O)NC(=O)[C@H](CO)NC(=O)[C@@H](NC(=O)[C@H](Cc1ccccc1)NC(=O)[C@@H](NC(=O)CNC(=O)[C@H](CCC(N)=O)NC(=O)[C@@H](CO)NC(=O)[C@@H](N)Cc1c[nH]cn1)[C@@H](C)O)[C@@H](C)O)C(=O)N[C@@H](CO)C(=O)N[C@@H](CCCCN)C(=O)N[C@@H](Cc1ccc(O)cc1)C(=O)N[C@@H](CC(C)C)C(=O)N[C@@H](CC(=O)O)C(=O)N[C@@H](CCC(=O)O)C(=O)N[C@@H](CCCNC(=N)N)C(=O)N[C@@H](C)C(=O)N[C@@H](C)C(=O)N[C@@H](CCC(N)=O)C(=O)N[C@@H](CC(=O)O)C(=O)N[C@@H](Cc1ccccc1)C(=O)N[C@H](C(=O)N[C@@H](CCCCNC(=O)COCCOCCNC(=O)COCCOCCNC(=O)CCCCN=[N+]=[N-])C(=O)N[C@@H](Cc1c[nH]c2ccccc12)C(=O)N[C@@H](CC(C)C)C(=O)N[C@@H](CC(C)C)C(=O)N[C@@H](CC(=O)O)C(=O)N[C@H](C(N)=O)[C@@H](C)O)C(C)C)C(=O)O)C(=O)O [PEP15] | 0.7 | 0.03 nM | 0.02 nM |  |
| Insulin levemir [IL] |  |  |  | 0.5 nM |
